Test results: article PMC11513923, “Discovery of ZLC491 as a Potent, Selective, and Orally Bioavailable CDK12/13 PROTAC Degrader” (Journal of Medicinal Chemistry, 2024)

Tests used:
[1] = test system: MDA-MB-231 xenograft tumors; assay: Histology of tumors (H&E staining, TUNEL IHC) in MDA-MB-231 xenograft model; format: in vivo, mouse; details: 100 and 200 mg/kg orally, 5 days; particularly at 200 mg/kg
Description: We further performed pharmacodynamic studies of ZLC491 in an MDA-MB-231 xenografted mouse model. ZLC491 was orally administrated at two doses of 100 and 200 mg/kg, respectively, for 5 consecutive days (Figure 7A). Tumor tissues were harvested on day 5 and subjected to Western blot analysis. […] Additionally, we conducted further histological analysis on the tumors following ZLC491 treatment.
Figure 7 ZLC491 depleted CDK12 and CDK13 proteins in vivo. (A) Study design of pharmacodynamics assessment on target engagement of ZLC491 in the MDA-MB-231 xenograft model; (B) immunoblotting of CDK12, CDK13, and α-tubulin in tissue lysate of MDA-MB-231 xenografts model after ZLC491 treatment; (C) protein levels were quantified using ImageJ and normalized to corresponding α-tubulin, then plotted using GraphPad Prism 8.0; (D) immunohistochemistry (IHC) analysis on the tumors by H&E staining and TUNEL assays; (E) TUNEL histology scores were analyzed and plotted by GraphPad Prism 8.0; (F) body weight change during the treatment.
H&E staining of formalin-fixed paraffin embedded (FFPE) tissue sections was performed using Leica Autostainer XL as per manufacturer’s protocol. […] Cells which were intensely stained for DAB pigment were considered to be apoptotic and they were quantified as numbers per 10 high power field (hpf, 400× magnification).

CDK12 = CDK12 (Homo sapiens, UniProt Q9NYV4); assay: TMT-labeled quantitative proteomics in MDA-MB-231 cells; format: cell-based; parameters: endogenous in cells; host or cells: MDA-MB-231; details: 8 h
Description: The global proteomic selectivity of ZLC491 was investigated by using the tandem mass tag (TMT) labeled mass-spectrometry. […] CDK13 was not detected in either degrader treatment groups or DMSO control groups, likely due to its insufficient cellular expression for mass spectrometry detection.
Figure 5 ZLC491 degraded CDK12/13 with high selectivity. (A) Global proteomic analysis of ZLC491 in MDA-MB-231 cells after 8 h treatment of DMSO or 2 μM ZLC491; (B) mass-spec quantification of CDKs changes; (C) immunoblotting of target protein degradation in samples for proteomic analysis.
MDA-MB-231 cells were seeded at 8 × 10^5 cells in 6 cm dishes 24 h before treating with 2 μM ZLC491 or DMSO in quadruplicate or triplicate for 8 h. Cell lysates were prepared by washing cells twice with cold PBS and adding 180 μL lysis buffer (10 mM HEPES, pH 7.0, 1% (w/v) SDS, 2 mM MgCl·6H2O supplemented with 0.1% BeyoZonase (Beyotime)) per dish. Samples were quantified using a micro-BCA protein assay kit (Thermo Fisher Scientific) and 600 μg of each sample was processed and digested using the filter aided sample preparation (FASP) method followed by alkylation with iodoacetamide and digestion with trypsin. The samples were then desalted using Oasis HLB C18 SPE cartridge column (Waters, WAT094225). The peptides were lyophilized and reconstituted, then 25 μg peptides of each sample were labeled with TMT 11-plex Isobaric Label Reagent Set (Thermo Fisher Scientific) as the manufacturer’s instructions. After labeling, the peptides from the 11 samples were pooled together. […]
The fractions were analyzed sequentially on an Orbitrap Fusion Lumos Mass Spectrometer (Thermo Scientific) coupled to a NanoLC-1200 UHPLC system (Thermo Scientific) with C18 capillary column. […] MS3 precursor were fragmented by HCD and analyzed with Orbitrap at NCE 65, AGC 1E5, resolution 60000.
The raw MS data files for all 11 fractions were searched against the Uniprot-Human-Canonical database by Proteome Discoverer 2.0 for protein identification and TMT reporter ion quantitation. […]

CDK12, sequence (Q9NYV4 whole entry): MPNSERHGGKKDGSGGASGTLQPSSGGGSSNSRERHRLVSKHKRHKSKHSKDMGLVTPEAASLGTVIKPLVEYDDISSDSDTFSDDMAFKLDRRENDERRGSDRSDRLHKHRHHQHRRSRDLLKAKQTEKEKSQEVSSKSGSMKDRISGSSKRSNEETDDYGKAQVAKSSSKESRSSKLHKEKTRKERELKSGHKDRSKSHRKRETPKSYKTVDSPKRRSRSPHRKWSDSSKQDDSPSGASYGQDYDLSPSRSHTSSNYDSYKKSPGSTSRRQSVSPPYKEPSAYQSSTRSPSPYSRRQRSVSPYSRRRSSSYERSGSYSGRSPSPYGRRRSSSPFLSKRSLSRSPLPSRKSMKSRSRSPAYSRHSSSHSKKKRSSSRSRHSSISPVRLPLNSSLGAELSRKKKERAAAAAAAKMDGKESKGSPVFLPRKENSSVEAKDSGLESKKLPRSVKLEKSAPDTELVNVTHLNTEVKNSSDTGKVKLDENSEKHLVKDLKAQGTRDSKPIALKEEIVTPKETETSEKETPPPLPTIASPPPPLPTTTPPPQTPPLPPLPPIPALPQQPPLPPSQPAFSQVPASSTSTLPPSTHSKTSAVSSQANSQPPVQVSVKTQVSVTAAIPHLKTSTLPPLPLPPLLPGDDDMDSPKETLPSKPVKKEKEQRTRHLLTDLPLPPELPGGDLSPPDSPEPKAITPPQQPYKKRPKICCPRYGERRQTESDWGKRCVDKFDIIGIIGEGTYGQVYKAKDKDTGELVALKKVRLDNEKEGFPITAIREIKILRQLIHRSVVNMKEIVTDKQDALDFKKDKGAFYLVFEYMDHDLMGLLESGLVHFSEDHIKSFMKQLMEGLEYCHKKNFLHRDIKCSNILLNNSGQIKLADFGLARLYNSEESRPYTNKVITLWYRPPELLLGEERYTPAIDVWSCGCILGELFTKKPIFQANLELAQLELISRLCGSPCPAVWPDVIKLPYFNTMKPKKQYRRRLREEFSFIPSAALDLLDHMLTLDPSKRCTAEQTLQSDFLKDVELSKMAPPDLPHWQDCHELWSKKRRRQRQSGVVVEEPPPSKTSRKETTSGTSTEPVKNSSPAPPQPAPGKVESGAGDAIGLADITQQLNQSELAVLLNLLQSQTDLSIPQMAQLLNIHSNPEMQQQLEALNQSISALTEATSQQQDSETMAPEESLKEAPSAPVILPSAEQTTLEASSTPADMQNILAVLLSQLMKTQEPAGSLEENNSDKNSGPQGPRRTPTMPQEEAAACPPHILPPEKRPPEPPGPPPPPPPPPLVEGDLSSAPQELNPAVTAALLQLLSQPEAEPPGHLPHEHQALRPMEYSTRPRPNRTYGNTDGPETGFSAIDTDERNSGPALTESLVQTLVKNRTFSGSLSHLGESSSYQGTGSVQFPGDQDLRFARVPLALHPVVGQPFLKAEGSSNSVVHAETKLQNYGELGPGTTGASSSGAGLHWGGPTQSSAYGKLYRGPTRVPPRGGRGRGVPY
CDK12, sequence (O75909 whole entry partner): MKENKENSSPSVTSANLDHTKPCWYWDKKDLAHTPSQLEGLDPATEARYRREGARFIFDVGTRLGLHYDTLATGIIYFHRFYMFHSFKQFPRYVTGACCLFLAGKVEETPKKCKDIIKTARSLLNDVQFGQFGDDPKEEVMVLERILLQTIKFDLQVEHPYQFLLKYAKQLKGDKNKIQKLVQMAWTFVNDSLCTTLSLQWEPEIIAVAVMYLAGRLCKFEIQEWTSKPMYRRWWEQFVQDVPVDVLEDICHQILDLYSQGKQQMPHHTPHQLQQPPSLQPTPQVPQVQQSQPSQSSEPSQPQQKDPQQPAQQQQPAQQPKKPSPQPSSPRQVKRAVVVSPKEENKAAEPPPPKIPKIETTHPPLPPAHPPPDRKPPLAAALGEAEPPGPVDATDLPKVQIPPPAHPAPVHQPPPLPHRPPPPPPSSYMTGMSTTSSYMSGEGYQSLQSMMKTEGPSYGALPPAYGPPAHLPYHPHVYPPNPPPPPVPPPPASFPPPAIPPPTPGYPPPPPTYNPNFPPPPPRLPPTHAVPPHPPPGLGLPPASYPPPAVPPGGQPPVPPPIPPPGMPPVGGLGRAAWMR

Compound: N#Cc1ccc(N[C@H]2CC[C@H](N(C(=O)NCc3ccccc3)c3ccc(N4CCN(C5CCN(c6cc7c(cc6F)C(=O)N(C6CCC(=O)NC6=O)C7=O)CC5)CC4)cc3)CC2)nc1 (stereo partly shown) [ZLC491, 3-Benzyl-1-((1r,4r)-4-((5-cyanopyridin-2-yl)amino)cyclohexyl)-1-(4-(4-(1-(2-(2,6-dioxopiperidin-3-yl)-6-fluoro-1,3-dioxoisoindolin-5-yl)piperidin-4-yl)piperazin-1-yl)phenyl)urea]
- apoptosis in tumors (H&E staining, TUNEL IHC) [1]: marked apoptosis and increased TUNEL signaling
- FC_4-91 (CDK12) (CDK12; 2 μM ZLC491 vs DMSO): 0.249
- CDK12 level in global proteomics (CDK12; 2 μM): significantly decreased
- selectivity among CDKs in global proteomics (CDK12; 2 μM): selective for CDK12 over other CDKs
